Measurements from patent US10821115B2, “Compounds that inhibit Mcl-1 protein” (priority 2017, dated 2020).
Read-outs that look alike come from different tables or passages of the source.

What was measured:
[1] = tested on: human multiple myeloma cell line, OPM-2; test: Cell viability assay (OPM-2 10 FBS), CellTiter-Glo; assay type: cell-based
Outline: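 Steps: plate cells at 3000/well in 10% FBS growth medium, add serially diluted compound, incubate 16 h at 37 °C with 5% CO2, add detection reagent and read luminescence after 25 min. A 4-parameter logistic model gives IC50.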

[2] = target: recombinant human Mcl-1 (residues 171-327) / Bim interaction (Homo sapiens (Human), UniProt Q07820); test: biochemical; assay type: binding; conditions: read-out: Mcl-1 HTRF IC50
Chain of recombinant human Mcl-1 (residues 171-327) / Bim interaction (Q07820 171-327): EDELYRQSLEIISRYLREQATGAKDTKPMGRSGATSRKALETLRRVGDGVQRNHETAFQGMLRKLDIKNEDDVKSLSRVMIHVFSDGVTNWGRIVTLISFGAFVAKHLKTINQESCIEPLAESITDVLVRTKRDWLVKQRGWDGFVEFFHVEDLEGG
Protocol: The inhibition of the Mcl-1/Bim interaction was measured using a time-resolved fluorescence resonance energy transfer (TR-FRET) assay. […] The TR-FRET assay was conducted in a 384-well white OptiPlate™ (PerkinElmer, Waltham, Mass.) in a total volume of 40 μL. The reaction mixture contained 0.1 nM Mcl-1(171-327), 0.05 nM biotin-Bim (51-76), 0.05 nM LANCE® Eu-W1024 Anti-6×His (PerkinElmer), 0.072 nM Streptavidin-Xlent (Cisbio, Bedford, Mass.), and serially diluted test compounds in the binding buffer of 20 mM Hepes, pH 7.5, 150 mM NaCl, 0.016 mM Brij®35, and 1 mM dithiothreitol. Test compounds were pre-incubated with Mcl-1(171-327) and biotin-Bim (51-76) for 60 min before addition of the detection mixture (LANCE® Eu-W1024 Anti-6×His and Streptavidin-Xlent). The reaction plates were further incubated overnight and then were read on an Envision® multimode reader (PerkinElmer). Fluorescence signals were measured at 620 nm (40-nm bandwidth) and 665 nm (7.5-nm bandwidth) with a 60 is delay after excitation at 320 nm (75-nm bandwidth). The signal ratio at 665/620 nm corresponded to the Mcl-1/Bim interaction and was used in all data analyses. The IC50 values of test compounds were determined from duplicate data by analyzing competition curves using a four-parameter sigmoidal model in GraphPad Prism (GraphPad Software, San Diego, Calif.) or in Genedata Screener® (Genedata, Basel, Switzerland).

[3] = Homo sapiens, OPM-2, 16 h, read-out: OPM-2 10% FBS IC50 IP, OPM-2 cells, 10% FBS, 16 h, CellTiter-Glo
[4] = TR-FRET, Mcl-1(171-327) / biotin-Bim (51-76)
[5] = Homo sapiens, OPM-2, 16 h, read-out: OPM-2 10% FBS IC50 IP, OPM-2 cells, 10% FBS, 16 h incubation
[6] = 0.1 nM Mcl-1(171-327), 0.05 nM biotin-Bim (51-76)
[7] = read-out: OPM-2 10% FBS IC50 IP, OPM-2 cells, 10% FBS, 16 h, CellTiter-Glo

Q: What does the source list for `CO[C@@]1(CC(=O)N2CCC2)/C=C/C[C@H](C)[C@@H](C)S(=O)(=O)NC(=O)c2ccc3c(c2)N(C[C@@H]2CC[C@H]21)C[C@@]1(CCCc2cc(Cl)ccc21)CO3` [Example 100006, (1 S,3′R,6′R,7′S,8′E,11′S,12′R)-7′-(2-(1-azetidinyl)-2-oxoethyl)-6-chloro-7′-methoxy-1′,12′-dimethyl-3,4-dihydro-2H, 15′H-spiro[naphthalene-1,22′-[20]oxa[13]thia[1,14]diazatetracyclo[14.7.2.0-3,6˜.0˜19,24˜]pentacosa[8,16,18,24]tetraen]-15′-one 13′,13′-dioxide]?
A: IC50 [1, 3]: 131 nM; IC50 [2, 4]: 0.081 nM

Q: Which results are given for `CO[C@]1(CN2CC(C)(C#N)C2)/C=C/C[C@H](C)[C@@H](C)S(=O)(=O)NC(=O)c2ccc3c(c2)N(C[C@@H]2CC[C@H]21)C[C@@]1(CCCc2cc(Cl)ccc21)CO3` [Example 71, 1-(((1S,3′R,6′R,7′R,8′E,11′S, 12′R)-6-chloro-7′-methoxy-11′,12′-dimethyl-13′,13′-dioxido-15′-oxo-3,4-dihydro-2H-spiro[naphthalene-1,22′-[20]oxa[13]thia[1,14]diazatetracyclo [14.7.2.0~3,6~.0~19,24~]pentacosa[8,16,18,24]tetraen]-7′-yl)methyl)-3-methyl-3-azetidinecarbonitrile]?
A: IC50 [1, 5]: 1140 nM; IC50 [2, 6]: 0.371 nM

Q: For `CO[C@@]1(CC(=O)N2CCN(C)C[C@H]2C)/C=C/C[C@H](C)[C@@H](C)S(=O)(=O)NC(=O)c2ccc3c(c2)N(C[C@@H]2CC[C@H]21)C[C@@]1(CCCc2cc(Cl)ccc21)CO3` [Example 100417, (1S,3′R,6′R,7′S,8′E,11′S,12′R)-6-chloro-7′-(2-((2R)-2,4-dimethyl-1-piperazinyl)-2-oxoethyl)-7′-methoxy-11′,12′-dimethyl-3,4-dihydro-2H,15′H-spiro[naphthalene-1,22′-[20]oxa[13]thia[1,14]diazatetracyclo [14.7.2.0~3,6~.0~19,24~]pentacosa[8,16,18,24]tetraen]-15′-one 13′,13′-dioxide], which IC50 [1, 3] is on record?
A: 379 nM

Q: What about the IC50 [2, 4] of the same molecule?
A: 0.345 nM

Q: Which results are given for `C[C@@H]1[C@@H](C)CCC[C@](O)(CC(=S)N(C)C)[C@@H]2CC[C@H]2CN2C[C@@]3(CCCc4cc(Cl)ccc43)COc3ccc(cc32)C(=O)NS1(=O)=O` (single isomer, unassigned) [Example 100173]?
A: IC50 [1, 7]: 379 nM; IC50 [2, 4]: 0.539 nM

Q: For `C[C@@H]1[C@@H](C)C/C=C/[C@]2(CN3CCN(C)C[C@@H]3CO2)[C@@H]2CC[C@H]2CN2C[C@@]3(CCCc4cc(Cl)ccc43)COc3ccc(cc32)C(=O)NS1(=O)=O` (single isomer, unassigned) [Example 132], which IC50 ([1]; read-out: OPM-2 10% FBS IC50 IP, OPM-2 cells, 10% FBS, 16 h incubation) is on record?
A: 263 nM

Q: And the IC50 [2, 6]?
A: 0.613 nM

Q: What does the source list for `CO[C@]1(CCN2CCN3CCCC[C@@H]3C2)CCC[C@H](C)[C@@H](C)S(=O)(=O)NC(=O)c2ccc3c(c2)N(C[C@@H]2CC[C@H]21)C[C@@]1(CCCc2cc(Cl)ccc21)CO3` [Example 100592, (1S,3′R,6′R,7′S,11′S,12′R)-6-chloro-7′-methoxy-11′,12′-dimethyl-7′-(2-((9aR)-octahydro-2H-pyrido[1,2-a]pyrazin-2-yl)ethyl)-3,4-dihydro-2H,15′H-spiro[naphthalene-1,22′-[20]oxa[13]thia[1,14]diazatetracyclo [14.7.2.0~3,6~.0~19,24~]pentacosa[16,18,24]trien]-15′-one 13′,13′-dioxide]?
A: IC50 [1, 3]: 139 nM; IC50 [2, 4]: 0.275 nM

Q: How did the IC50 [1, 5] turn out when `C[C@@H]1[C@@H](C)C/C=C/[C@]2(CN(Cc3ccncc3)CCO2)[C@@H]2CC[C@H]2CN2C[C@@]3(CCCc4cc(Cl)ccc43)COc3ccc(cc32)C(=O)NS1(=O)=O` [Example 136, (1S,3′R,6′R,7′R,8′E,11′S,12′R)-6-chloro-11′,12′-dimethyl-4″- (4-pyridinylmethyl)-3,4-dihydro-2H,15′H-dispiro[naphthalene-1,22′-[20]oxa[13]thia[1,14]diazatetracyclo [14.7.2.0~3,6~.0~19,24~]pentacosa[8,16,18,24]tetraene-7′,2″-[1,4]oxazinan]-15′-one 13′,13′-dioxide] was run?
A: 1020 nM

Q: What about the IC50 [2, 6] of the same molecule?
A: 4.7 nM

Q: `CCN(CC)C(=O)C[C@]1(O)CCC[C@H](C)[C@@H](C)S(=O)(=O)NC(=O)c2ccc3c(c2)N(C[C@@H]2CC[C@H]21)C[C@@]1(CCCc2cc(Cl)ccc21)CO3` [Example 100112, 2-((1S,3′R,6′R,7′R,11′S,12′R)-6-chloro-7′-hydroxy-11′,12′-dimethyl-13′,13′-dioxido-15′-oxo-3,4-dihydro-2H-spiro[naphthalene-1,22′-[20]oxa[13]thia[1,14]diazatetracyclo [14.7.2.0~3,6~.0~19,24~]pentacosa[16,18,24]trien]-7′-yl)-N,N-diethylacetamide] was tested. Which IC50 [1, 7] did it give?
A: 1800 nM

Q: What about the IC50 [2] of the same molecule?
A: 1.29 nM

Q: Which results are given for `CO[C@]1(CN2CCN(C(C)C)C(=O)C2)/C=C/C[C@H](C)[C@@H](C)S(=O)(=O)NC(=O)c2ccc3c(c2)N(C[C@@H]2CC[C@H]21)C[C@@]1(CCCc2cc(Cl)ccc21)CO3` [Example 323, (1S,3′R,6′R,7′R,8′E,11′S,12′R)-6-chloro-7′-methoxy-11′,12′-dimethyl-7′-((4-(1-methylethyl)-3-oxo-1-piperazinyl)methyl)-3,4-dihydro-2H,15′H-spiro[naphthalene-1,22′-[20]oxa[13]thia[1,14]diazatetracyclo [14.7.2.0~3,6~.0~19,24~]pentacosa[8,16,18,24]tetraen]-15′-one 13′,13′-dioxide]?
A: IC50 [1, 5]: 169 nM; IC50 [2, 6]: 0.166 nM

Q: Which results are given for `COCCO[C@]1(CN2CCN3CCCC[C@@H]3C2)/C=C/C[C@H](C)[C@@H](C)S(=O)(=O)NC(=O)c2ccc3c(c2)N(C[C@@H]2CC[C@H]21)C[C@@]1(CCCc2cc(Cl)ccc21)CO3` [Example 152, (1S,3′R,6′R,7′R,8′E,11′S,12′R)-6-chloro-7′-(2-methoxyethoxy)-11′,12′-dimethyl-7′-((9aR)-octahydro-2H-pyrido[1,2-a]pyrazin-2-ylmethyl)-3,4-dihydro-2H,15′H-spiro[naphthalene-1,22′-[20]oxa[13]thia[1,14]diazatetracyclo [14.7.2.0~3,6~.0~19,24~]pentacosa[8,16,18,24]tetraen]-15′-one 13′,13′-dioxide]?
A: IC50 [1, 5]: 110 nM; IC50 [2, 6]: 0.092 nM

Q: What does the source list for `COC1=NO[C@@]2(CCC[C@H](C)[C@@H](C)S(=O)(=O)NC(=O)c3ccc4c(c3)N(C[C@@H]3CC[C@H]32)C[C@@]2(CCCc3cc(Cl)ccc32)CO4)C1` [Example 100134, (1S,3′R,6′R,7′S,11′S,12′R)-6-chloro-3″- methoxy-11′,12′-dimethyl-3,4-dihydro-2H,4″H,15′H-dispiro[naphthalene-1,22′-[20]oxa[13]thia[1,14]diazatetracyclo [14.7.2.0~3,6~.0~19,24~]pentacosa[16,18,24]triene-7′,5″-[1,2]oxazol]-15′-one 13′,13′-dioxide]?
A: IC50 [1, 3]: 3510 nM; IC50 [2, 4]: 0.845 nM

Q: Which results are given for `COCCOC[C@]1(O)CCC[C@H](C)[C@@H](C)S(=O)(=O)NC(=O)c2ccc3c(c2)N(C[C@@H]2CC[C@H]21)C[C@@]1(CCCc2cc(Cl)ccc21)CO3` [Example 100192, (1S,3′R,6′R,7′S,11′S,12′R)-6-chloro-7′-hydroxy-7′-((2-methoxyethoxy)methyl)-11′,12′-dimethyl-3,4-dihydro-2H,15′H-spiro[naphthalene-1,22′-[20]oxa[13]thia[1,14]diazatetracyclo [14.7.2.0~3,6~.0~19,24~]pentacosa[16,18,24]trien]-15′-one 13′,13′-dioxide]?
A: IC50 [1, 3]: 149 nM; IC50 [2, 4]: 0.192 nM

Q: Which results are given for `C[C@@H]1[C@@H](C)C/C=C/C(O)([C@H]2OCCN(C)C2=O)[C@@H]2CC[C@H]2CN2C[C@@]3(CCCc4cc(Cl)ccc43)COc3ccc(cc32)C(=O)NS1(=O)=O` (single isomer, unassigned) [Example 100019]?
A: IC50 [1, 3]: 58 nM; IC50 [2, 4]: 0.182 nM
